Measured values published in PubChem BioAssay (NCI).
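A five-concentration, 48-hour dose response in 96-well plates underlies each endpoint, interpolated linearly between surrounding concentrations. GI50 marks 50% less growth. TGI is the concentration that stops growth completely.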

Columns and labels:
Experiment in all cases: NCI tumour cell line growth inhibition, 48 h
MOLT-4 leukemia = test system: MOLT-4 leukemia
OVCAR-5 ovarian = test system: OVCAR-5 ovarian
OVCAR-3 ovarian = test system: OVCAR-3 ovarian
TK-10 renal = test system: TK-10 renal
U251 CNS = test system: U251 CNS
NCI-H522 lung = test system: NCI-H522 lung
PC-3 prostate = test system: PC-3 prostate
HOP-92 NSCLC = test system: HOP-92 NSCLC
SK-MEL-28 melanoma = test system: SK-MEL-28 melanoma
NCI-H23 lung = test system: NCI-H23 lung
RPMI-8226 leukemia = test system: RPMI-8226 leukemia
HT29 colon = test system: HT29 colon
786-0 renal = test system: 786-0 renal
HCT-116 colon = test system: HCT-116 colon
T-47D breast = test system: T-47D breast
SNB-19 CNS = test system: SNB-19 CNS
MALME-3M melanoma = test system: MALME-3M melanoma
DU-145 prostate = test system: DU-145 prostate
CCRF-CEM leukemia = test system: CCRF-CEM leukemia
SW-620 colon = test system: SW-620 colon
SF-268 CNS = test system: SF-268 CNS
SR leukemia = test system: SR leukemia
HL-60(TB) leukemia = test system: HL-60(TB) leukemia
SK-MEL-2 melanoma = test system: SK-MEL-2 melanoma
SF-295 CNS = test system: SF-295 CNS
HCC-2998 colon = test system: HCC-2998 colon
A549 NSCLC = test system: A549 NSCLC
HOP-62 NSCLC = test system: HOP-62 NSCLC
M14 melanoma = test system: M14 melanoma
UACC-257 melanoma = test system: UACC-257 melanoma
OVCAR-4 ovarian = test system: OVCAR-4 ovarian
CAKI-1 renal = test system: CAKI-1 renal
EKVX NSCLC = test system: EKVX NSCLC
NCI-H226 lung = test system: NCI-H226 lung
MCF7 breast = test system: MCF7 breast
UACC-62 melanoma = test system: UACC-62 melanoma
SK-OV-3 ovarian = test system: SK-OV-3 ovarian
IGROV1 ovarian = test system: IGROV1 ovarian
ACHN renal = test system: ACHN renal
RXF 393 renal = test system: RXF 393 renal
A498 renal = test system: A498 renal
LOX IMVI melanoma = test system: LOX IMVI melanoma
SK-MEL-5 melanoma = test system: SK-MEL-5 melanoma
KM12 colon = test system: KM12 colon
NCI/ADR-RES ovarian = test system: NCI/ADR-RES ovarian
MDA-MB-435 = test system: MDA-MB-435
COLO 205 colon = test system: COLO 205 colon
NCI-H460 lung = test system: NCI-H460 lung
HCT-15 colon = test system: HCT-15 colon
SF-539 CNS = test system: SF-539 CNS
SNB-75 CNS = test system: SNB-75 CNS
MDA-MB-231 breast = test system: MDA-MB-231 breast
HS 578T breast = test system: HS 578T breast
OVCAR-8 ovarian = test system: OVCAR-8 ovarian
UO-31 renal = test system: UO-31 renal
K-562 leukemia = test system: K-562 leukemia
BT-549 breast = test system: BT-549 breast
SN12C renal = test system: SN12C renal

With `Cc1ccc(CN(C)c2ccc(CO)c(Cl)c2)cc1` the GI50 (MOLT-4 leukemia) was 25.4 µM, the TGI (MOLT-4 leukemia) was > 79.7 µM and the GI50 (OVCAR-5 ovarian) was 0.446 µM. The TGI (OVCAR-5 ovarian) was 2.48 µM, the GI50 (OVCAR-3 ovarian) was 3.06 µM and the TGI (OVCAR-3 ovarian) was 12.5 µM. For the same molecule, the GI50 (TK-10 renal) was 0.194 µM, the TGI (TK-10 renal) was 0.938 µM and the GI50 (U251 CNS) was 3.92 µM. For the same molecule, the TGI (U251 CNS) was 39.9 µM, the GI50 (NCI-H522 lung) was 17.2 µM and the TGI (NCI-H522 lung) was 65.6 µM. For the same molecule, the GI50 (PC-3 prostate) was 24.2 µM, the TGI (PC-3 prostate) was 97.5 µM and the GI50 (HOP-92 NSCLC) was 1.98 µM. The TGI (HOP-92 NSCLC) was 36.7 µM, the GI50 (SK-MEL-28 melanoma) was 15.6 µM and the TGI (SK-MEL-28 melanoma) was 53.6 µM. For the same molecule, the GI50 (NCI-H23 lung) was 12.6 µM, the TGI (NCI-H23 lung) was > 80 µM and the GI50 (RPMI-8226 leukemia) was 10.2 µM. The TGI (RPMI-8226 leukemia) was > 65.2 µM, the GI50 (HT29 colon) was 6.07 µM and the TGI (HT29 colon) was 30 µM. It also gave a GI50 (786-0 renal) of 11.8 µM, a TGI (786-0 renal) of 31.9 µM and a GI50 (HCT-116 colon) of 0.395 µM. The TGI (HCT-116 colon) was 11.6 µM, the GI50 (T-47D breast) was 0.367 µM and the TGI (T-47D breast) was 2.4 µM. For the same molecule, the GI50 (SNB-19 CNS) was 34.8 µM, the TGI (SNB-19 CNS) was > 100 µM and the GI50 (MALME-3M melanoma) was 19.7 µM. The TGI (MALME-3M melanoma) was 59 µM, the GI50 (DU-145 prostate) was 22.6 µM and the TGI (DU-145 prostate) was > 100 µM. The GI50 (CCRF-CEM leukemia) was 33.7 µM, the TGI (CCRF-CEM leukemia) was > 100 µM and the GI50 (SW-620 colon) was 5.23 µM. The TGI (SW-620 colon) was > 100 µM, the GI50 (SF-268 CNS) was 30.8 µM and the TGI (SF-268 CNS) was > 100 µM. For the same molecule, the GI50 (SR leukemia) was 23.7 µM, the TGI (SR leukemia) was > 86.8 µM and the GI50 (HL-60(TB) leukemia) was 15.1 µM. It also gave a TGI (HL-60(TB) leukemia) of 56 µM, a GI50 (SK-MEL-2 melanoma) of 8.26 µM and a TGI (SK-MEL-2 melanoma) of 31 µM. The GI50 (SF-295 CNS) was 3.37 µM, the TGI (SF-295 CNS) was > 76 µM and the GI50 (HCC-2998 colon) was 13.9 µM. For the same molecule, the TGI (HCC-2998 colon) was > 60.6 µM, the GI50 (A549 NSCLC) was 3.69 µM and the TGI (A549 NSCLC) was 27.7 µM. The GI50 (HOP-62 NSCLC) was 3.44 µM, the TGI (HOP-62 NSCLC) was 29.9 µM and the GI50 (M14 melanoma) was 20.9 µM. The TGI (M14 melanoma) was > 65.1 µM, the GI50 (UACC-257 melanoma) was 0.344 µM and the TGI (UACC-257 melanoma) was 1.31 µM. For the same molecule, the GI50 (OVCAR-4 ovarian) was 1.52 µM, the TGI (OVCAR-4 ovarian) was 13.7 µM and the GI50 (CAKI-1 renal) was 2.4 µM. The TGI (CAKI-1 renal) was 45.8 µM, the GI50 (EKVX NSCLC) was 18.6 µM and the TGI (EKVX NSCLC) was 79.7 µM. The GI50 (NCI-H226 lung) was 0.119 µM, the TGI (NCI-H226 lung) was 0.257 µM and the GI50 (MCF7 breast) was 0.676 µM. For the same molecule, the TGI (MCF7 breast) was 12 µM, the GI50 (UACC-62 melanoma) was 0.282 µM and the TGI (UACC-62 melanoma) was 2.71 µM. The GI50 (SK-OV-3 ovarian) was 5.8 µM, the TGI (SK-OV-3 ovarian) was 30.3 µM and the GI50 (IGROV1 ovarian) was 0.363 µM. For the same molecule, the TGI (IGROV1 ovarian) was 2.52 µM, the GI50 (ACHN renal) was 23.6 µM and the TGI (ACHN renal) was > 100 µM. It also gave a GI50 (RXF 393 renal) of 6.9 µM, a TGI (RXF 393 renal) of 26.5 µM and a GI50 (A498 renal) of 0.056 µM. For the same molecule, the TGI (A498 renal) was 0.196 µM, the GI50 (LOX IMVI melanoma) was 17.9 µM and the TGI (LOX IMVI melanoma) was > 52.7 µM. For the same molecule, the GI50 (SK-MEL-5 melanoma) was 5.44 µM, the TGI (SK-MEL-5 melanoma) was 18 µM and the GI50 (KM12 colon) was 21.3 µM. For the same molecule, the TGI (KM12 colon) was 72 µM, the GI50 (NCI/ADR-RES ovarian) was 16.1 µM and the TGI (NCI/ADR-RES ovarian) was 63.2 µM. The GI50 (MDA-MB-435) was 29.8 µM, the TGI (MDA-MB-435) was > 100 µM and the GI50 (COLO 205 colon) was 3.24 µM. The TGI (COLO 205 colon) was 10.5 µM, the GI50 (NCI-H460 lung) was 1.17 µM and the TGI (NCI-H460 lung) was 11.5 µM. The GI50 (HCT-15 colon) was 13.4 µM, the TGI (HCT-15 colon) was > 100 µM and the GI50 (SF-539 CNS) was 30 µM. The TGI (SF-539 CNS) was > 94.1 µM, the GI50 (SNB-75 CNS) was 17.2 µM and the TGI (SNB-75 CNS) was 78.2 µM. For the same molecule, the GI50 (MDA-MB-231 breast) was 21.9 µM, the TGI (MDA-MB-231 breast) was > 100 µM and the GI50 (HS 578T breast) was 26.2 µM. The TGI (HS 578T breast) was > 100 µM, the GI50 (OVCAR-8 ovarian) was 14.3 µM and the TGI (OVCAR-8 ovarian) was > 80.1 µM. It also gave a GI50 (UO-31 renal) of 6.54 µM, a TGI (UO-31 renal) of 75.9 µM and a GI50 (K-562 leukemia) of 6.05 µM. The TGI (K-562 leukemia) was > 100 µM, the GI50 (BT-549 breast) was 13.2 µM and the TGI (BT-549 breast) was 37 µM. The GI50 (SN12C renal) was 14 µM and the TGI (SN12C renal) was 49.5 µM.
